From publication PMC6571673, “Cytostatic and Cytotoxic Natural Products against Cancer Cell Models” (Molecules, 2019)

Legend:
BJ = test: CTG viability assay (CellTiter-Glo, 72 h); format: cell-based, human; conditions: Homo sapiens, BJ; CellTiter-Glo, 72 h; non-cancerous cells
Method: (§1) All human cell lines were incubated at 37 °C in a 5% CO2 atmosphere and maintained under sterile conditions. Cells were tested for Mycoplasma (Lonza, Alpharetta, GA, USA) using the manufacturer’s conditions prior to experiments. Cell lines were purchased from American Type Culture Collection (ATCC, Manassas, VA, USA) or Leibniz-Institute Deutsche Sammlung von Mikroorganismen und Zellkulturen GmbH (DSMZ, Braunschweig, Germany) and cultured without antibiotics unless stated. Leukemia cells were cultured in RPMI and supplemented with 10% fetal bovine serum (FBS, Hyclone, Logan, UT, USA). SUP-B15, and KOPN-8 lines were cultured in RPMI supplemented with 10% FBS (Hyclone), 1% GlutaMAX™, 1% Pen/Step, and 0.1% β-mercaptoethanol. BJ cells were cultured in EMEM media supplemented with 10% FBS (Hyclone). Breast cancer cells (MDA-MB-231 & SUM149) were cultured in DMEM and Ham’s F12 respectively, supplemented with 10% FBS, 1% GlutaMAX™, 1% Pen/Step, and 2 µM cortisol/1 µg/mL insulin for SUM149. Both cells were grown to 80% confluence densities as recommended by ATCC. PBMCs were supplemented with concanavalin-A (5 μg/mL) and IL-2 (50 U/ml). To test general cytotoxicity, the following cell numbers were used for 384 well plates: KOPN-8 (ACC 552, infant human B cell precursor acute lymphoblastic leukemia with MLL-MLLt1/ENL fusion, 1000 cells/well), SUP-B15 (ACC389, human B cell precursor acute lymphoblastic leukemia of pediatric second relapse carrying the ALL-variant (m-bcr) of BCR-ABL1 fusion gene (e1-a2), 1600 cells/well), NALM-06 (DSMZ ACC128, non-T/non-B ALL at relapse with P15INK4B and P16INK4A deletions, 1200 cells/well), UoC-B1 (pediatric BCP-ALL at second relapse with TCF3/E2A-HFL fusion, 1000 cells/well), BJ (CRL-2522, normal human foreskin fibroblast cells, 400 cells/well) and PBMCs (periphery blood monocyte cells from healthy donors, IBC#BDC046, 10,000 cells/well).
(§2) Cytotoxicity evaluation was performed using the CellTiter-Glo Luminescent Cell Viability Assay kit (G7570, Promega, Madison, WI, USA), according to the manufacturer’s instructions. Briefly, the cell concentrations used were experimentally determined to ensure logarithmic growth during the 72-h duration of the experiment, and avoid adverse effects on cell growth by DMSO exposure. 1 × 10^3–4.8 × 10^3 or 4 × 10^2–1.2 × 10^3 cells/well were seeded in 96 or 384-well white flat-bottomed plates (3610 or 8804BC, Corning, Corning, NY, USA) in 100 µL or 30 µL/well, respectively. The plates were incubated at 37 °C in 5% CO2 for 24 h before drugging. Test compounds (10 mM in DMSO) in nine 3-fold serial dilutions were dispensed via pintool (Biomek liquid handler, Beckman, Indianapolis, USA) to assay plates. The final concentration of DMSO was 0.3% (v/v) in each well. The positive controls included staurosporine (10 μM), and gambogic acid (10 μM). The plates were incubated for 72 h at 37 °C in 5% CO2, then quenched with CellTiter-Glo® (Promega, Madison, WI, USA, 50 µL/96 or 30 µL/384), centrifuged at 1000 rpm for 1 min and incubated at RT for 20 min. Luminescence was recorded with a plate reader (Envision, Perkin Elmer, Waltham, MA, USA). The mean luminescence of each experimental treatment group was normalized as a percentage of the mean intensity of untreated controls. EC50 values were calculated by Pipeline Pilot software (Accelrys, Enterprise Platform, San Diego, CA, USA).

SUP-B15 [1] = test: CTG viability assay (CellTiter-Glo, 72 h); format: cell-based, human; conditions: Homo sapiens
Method: as §1, §2

KOPN-8 [2] = test: CTG viability assay (CellTiter-Glo, 72 h); format: cell-based; conditions: Homo sapiens, mean ± SEM of triplicates
Method: as §1, §2

NALM-06 = test: CTG viability assay (CellTiter-Glo, 72 h); format: cell-based; conditions: Homo sapiens, mean ± SEM of triplicates
Method: as §1, §2

PBMC = test: CTG viability assay (CellTiter-Glo, 72 h); format: cell-based; conditions: Homo sapiens, non-cancerous cells
Method: as §1, §2

UoC-B1 = test: CTG viability assay (CellTiter-Glo, 72 h); format: cell-based; conditions: Homo sapiens, mean ± SEM of triplicates
Method: as §1, §2

[3] = test system: de novo protein synthesis in MDA-MB-231; test: EZClick in-cell-click de novo protein synthesis assay; format: cell-based, human; conditions: MDA-MB-231, 2 h exposure time
Description: Protein synthesis is essential in cell growth, proliferation, signaling, differentiation, and death. […] The assay includes a robust chemical method based on an alkyne containing o-propargyl-puromycin probe, which stops translation by forming covalent conjugates with nascent polypeptide chains. Truncated polypeptides are rapidly turned over by the proteasome and can be detected based on the subsequent click reaction with a fluorescent azide. To test whether these compounds (4–14) induced de novo protein synthesis inhibition, compounds were tested for a 2 h exposure time, under the same conditions as the known protein synthesis inhibitor cycloheximide (CHX) in MDA-MB-231 cell model following an in-cell-click de novo protein synthesis assay.
Biovision’s EZClick™ protein synthesis monitoring assay kit (EZClick™ Global Protein Synthesis Assay Kit, Catalog # K715-100, Milpitas, CA, USA) was used according to manufacturer’s protocol. The assay was conducted in 8-well chambered coverslips (ibidi GmbH µ-slide # 80826, Martinsried, Germany). Cells were plated at 2 × 10^4 per well and incubated at 37 °C for 12 h. Then, the cells were treated with compounds for 1.5 h and processed and stained according to protocol (representative images shown in Figure 4). Protein synthesis activity is shown in red, DNA staining is shown in green. Cycloheximide (CHX) was used as a positive control and DMSO as the negative control. Images shown were taken with a Marianas CSU-X spinning disk confocal imaging system (3i, Denver, CO, USA) configured with a Zeiss Axio Observer microscope (Carl Zeiss Inc., Thornwood, NY, USA) with diode lasers, at 63× magnification and resolution of 512 × 512 pixels (3i). For each field of view, an image stack consisting of 20 optical sections were taken at 63× magnification. The total intensity of red and green staining was quantified for the entire image stack. Six fields of view were analyzed per condition. Images shown represent a single optical section for each field of view. For each stack, the red intensity (protein synthesis) was adjusted to the green intensity (DNA content) in each image. The numbers from six images were used to calculate the average and standard deviation for each condition. Numbers were normalized to the negative control value arbitrarily set to one. The Slide viewer 6 software package was used for rendering and analysis of the images.

KOPN-8 [4] = test: Cell cycle analysis (PI DNA content, flow cytometry); format: cell-based, human; conditions: KOPN-8, 24 h; silvestrol 5 µM, 8 5 µM, 9 10 µM, 10 5 µM, 12 10 µM, 13 10 µM
Method: (§3) The samples were probed with AnnexinV-FITC (Roche/Boehringer Mannheim, Indianapolis, IN, USA) according to the manufacturer’s instructions. KOPN-8 or SUB-P15 cells were plated (1.00 × 10^6 cells/plate) and incubated for 12 h and incubated at 37 °C. Then, cells were treated with compounds or controls for 24 h. Cells were stained with AnnexinV-FITC, PI and the staining profiles were determined with FACScan and Cell-Quest software. For cellular DNA content, the same cell treatment as above was performed. Then, cells were fixed in cold 75% ethanol, treated with RNase and then stained with PI solution (50 µg/mL). Cell cycle distribution was analyzed with the FACSCalibur analyzer (BD Biosciences, Franklin Lakes, NJ, USA) and Cell-Quest software. The percentage of DNA content at different phases of the cell cycle was analyzed with ModFit-software (version 5.0, Verity Software House, Topsham, ME, USA).

SUP-B15 [5] = test: as above; format: cell-based, human; conditions: SUP-B15, 24 h; for cell cycle effect: silvestrol 5 µM, 8 5 µM, 9 10 µM, 10 5 µM, 12 10 µM, 13 10 µM
Method: as §3

KOPN-8 [6] = test: Annexin V/PI apoptosis flow cytometry assay; format: cell-based, human; conditions: KOPN-8, 24 h; for live cells (Annexin-, PI-): 8 5 µM, 9 10 µM, 10 5 µM, 12 10 µM, 13 10 µM; for late apoptotic state or cell death: 10 µM
Method: as §3

SUP-B15 [7] = test: Annexin V/PI apoptosis flow cytometry assay; format: cell-based, human; conditions: SUP-B15, 24 h; for live cells (Annexin-, PI-): 8 5 µM, 9 10 µM, 10 5 µM, 12 10 µM, 13 10 µM; for late apoptotic state or cell death: 10 µM
Method: as §3

MDA-MB-231 = test: Propidium iodide (PI) assay, 48 h; format: cell-based, human; conditions: MDA-MB-231, 48 h
Method: (§4) The first step was to evaluate if the compounds display cytotoxicity against the adherent cells. Propidium iodide (PI) assay was performed for the drug resistant solid tumor cellular models (triple negative breast cancer models: SUM149 and MDA-MB-231) for 48 h (Figure 5) [30, 31].

SUM149 = test: Propidium iodide (PI) assay, 48 h; conditions: SUM149, 48 h
Method: as §4

[8] = test system: human cancer cell lines such as oral carcinoma, melanoma, acute myelogenous leukemia, and cervical cancer; parameters: method as in PMID 15132542, PMID 22128783, PMID 24086701, PMID 19190247; conditions: several human cancer cell lines; cited from earlier work
[9] = SUP-B15, mean ± SEM of triplicates
[10] = SUP-B15, 72 h, mean ± SEM of triplicates

SMILES | EC50 (BJ) [µM] | EC50 (SUP-B15 [1]; [9]) [µM] | EC50 (KOPN-8 [2]) [µM] | EC50 (NALM-06) [µM] | EC50 (PBMC) [µM] | EC50 (UoC-B1) [µM] | de novo protein synthesis inhibition [3] | EC50 (SUP-B15 [1]; [10]) [µM] | cell cycle effect (KOPN-8 [4]) | increase in the percentage of cells in S phase (SUP-B15 [5]; 5 µM) | reduction in the percentage of cells in G2/M phase (SUP-B15 [5]; 5 µM) | live cells (Annexin-, PI-) (KOPN-8 [6]) | live cells (Annexin-, PI-) (SUP-B15 [7]) | reduction in the percentage of cells in the S phase (SUP-B15 [5]; 10 µM) | cell cycle effect (SUP-B15 [5]) | late apoptotic state or cell death (KOPN-8 [6]) | late apoptotic state or cell death (SUP-B15 [7]) | activity in PI assay (MDA-MB-231) | activity in PI assay (SUM149) | IC50 values [8]
COc1ccc(CC2c3cc(O)c(OC)cc3CCN2C)cc1O (centres unmarked) [Compound 4] | > 46.8 | 38 ± 6.1 | 32.1 ± 3.5 | 18.3 ± 2.5 | > 86.8 | > 23.4 | Partial protein synthesis inhibition | – | – | – | – | – | – | – | – | – | – | – | – | –
COc1cc2c(cc1O)[C@H]1Cc3ccc(OC)c(O)c3CN1CC2 [Compound 5] | > 43.3 | 29 ± 3.7 | 32 ± 7.6 | 8.38 ± 1.8 | > 43.3 | 17.3 ± 3.8 | – | – | – | – | – | – | – | – | – | – | – | – | – | –
CCC1CN2CCc3cc(OC)c(OC)cc3C2CC1CC1NCCc2cc(O)c(OC)cc21 (centres unmarked) [Compound 6] | > 43.3 | 9.83 ± 0.5 | 0.16 ± 0.05 | 18.4 ± 3.1 | > 43.3 | > 21.6 | – | – | – | – | – | – | – | – | – | – | – | – | – | –
COc1ccc2c(c[n+](C)c3c4cc5c(cc4ccc23)OCO5)c1OC [Compound 8, chelerythrine] | 29.8 | – | 0.821 ± 0.22 | 1.9 ± 0.2 | 7.89 | 1.96 ± 0.28 | no inhibition | 2.77 ± 0.36 | significant cell arrest in G1/G0 | ~ 20% | ~ 10% | not viable | not viable | – | – | – | – | – | – | –
CC(C)(O)CC[C@@H](O)[C@](C)(O)[C@H]1CC[C@@]2(O)C3=CC(=O)[C@@H]4C[C@@H](O)[C@@H](O)C[C@]4(C)[C@H]3CC[C@]12C [Compound 11] | > 43.3 | – | > 43.3 | > 43.3 | > 43.3 | > 21.6 | no protein synthesis inhibition | 29 ± 6 | – | – | – | – | – | – | – | – | – | – | – | –
C[C@H]([C@H](O)CCC(C)(C)O)[C@H]1CC[C@@]2(O)C3=CC(=O)[C@@H]4C[C@@H](O)[C@@H](O)C[C@]4(C)[C@H]3CC[C@]12C [Compound 12, ecdysone] | > 43.3 | 20.1 ± 3.2 | > 43.3 | > 43.3 | > 43.3 | > 21.6 | little to no protein synthesis inhibition | – | minimal effect on the cell cycle | – | – | small decrease in live cells | small decrease in live cells | ~ 10% | arrested G2/M | did not capture significant increase of late apoptotic state or cell death | did not capture significant increase of late apoptotic state or cell death | – | – | –
CC(C)CC[C@@H](O)[C@](C)(O)[C@H]1CC[C@@]2(O)C3=CC(=O)[C@]4(O)C[C@@H](O)[C@@H](O)C[C@]4(C)[C@H]3[C@H](O)C[C@]12C [Compound 13, muristerone A] | > 43.3 | – | > 43.3 | 0.518 ± 0.15 | > 43.3 | > 21.6 | little to no protein synthesis inhibition | 9.5 ± 2.1 | minimal effect on the cell cycle | – | – | – | – | – | – | did not capture significant increase of late apoptotic state or cell death | did not capture significant increase of late apoptotic state or cell death | – | – | –
C/C=C1\C(=O)C[C@@]2(O)[C@@H]3CCC4=CC(=O)CC[C@]4(C)[C@H]3CC[C@]12C [Compound 14] | > 43.3 | – | > 43.3 | > 43.3 | > 43.3 | > 21.6 | no protein synthesis inhibition | 17.2 ± 4.5 | – | – | – | – | – | – | – | – | – | weakest activity | weakest activity | –
COC(=O)[C@H]1[C@@H](O)[C@@]2(O)c3c(OC)cc(O[C@@H]4O[C@@H]([C@H](O)CO)CO[C@H]4OC)cc3O[C@@]2(c2ccc(OC)cc2)[C@@H]1c1ccccc1 [Silvestrol, reference compound] | – | – | – | – | – | – | – | – | cell arrest in the G1/G0 phase | – | – | – | – | – | cell arrest in the G1/G0 phase | – | – | – | – | low micromolar range
